Test results published in US4734416A, “Pharmaceutically useful carbostyril derivatives” (Otsuka Pharmaceutical Co., Ltd., priority 1978, dated 1988).
Counter-ions that a name gives are not always drawn.

Legend:
[1] = antihistamic effect, literature value; cited from earlier work
[2] = target: T1, enucleated ileum of a guinea pig (Cavia porcellus, UniProt P31389); assay: Antihistamine activity test in vitro (enucleated guinea pig ileum, histamine retraction, pA2 by Van Rossam method); conditions: 10^-6 g/ml test compound, 5 minutes before histamine, 36° C.
T1 construct: the tissue of ileum is cut to a length of 2.5 to 3.0 cm and suspended in an organ bath; from tissue; host or cells: isolated ileum from the ileocecal region of male guinea pig
Protocol: As to the test method for determining antihistamine activity of a compound in vitro, a method of using an enucleated ileum of a guinea pig is generally accepted.
A male guinea pig having 300 to 500 g body weight is killed by blood letting. An ileum having a length of 15 cm being enculeated from the ileocecal region is dipped into Tyrode's solution (which is prepared from […], 0.2 g of KCl, 0.2 g of CaCl2, 1.0 g of glucose, 1.0 g of NaHCO3, 0.065 g of NaHPO4.2H2 O and 0.2135 g of MgCl2.6H2 O to make 1000 ml in total volume by adding water). Then the tissue of ileum is cut to a length of 2.5 to 3.0 cm and suspended in an organ bath filled with 30 ml of Tyrode's solution. The organ bath is kept at a temperature of 36° C. and a mixed gas consisting of 5% of CO2 and 95% of O2 is blown into the bath. 10 Minutes after the blowing, 10^-6 M of histamine is added to the bath to examine the sensitivity of the tissue and a reaction curve (control) with respect to the dosage of histamine is obtained. After the dosage of histamine-reaction curve (control) becomes constant, 10^-6 g/ml of a compound to be tested is added to the bath and further histamine is added 5 minutes later to obtain a dosage-reaction curve. Retraction of the ileum is recorded on a pen-recorder through an isotonic transducer [TD-112S manufactured by Nihon Koden]. Antihistamine activity of the test compound is determined as pA2 value by the "Van Rossam" method [J. M. Van Rossam; Arch. Inst. Pharmacodyn., 143, 299 (1963)] wherein the maximum retraction of ileum caused by histamine shown in the control curve is 100%.

[3] = Halothane anesthesia increasing activity (righting reflex); assay type: in vivo, mouse (male, ddy-strain); conditions: oral
Protocol: Male mice of ddy-strain having about 20 g body weight are used. One test group consists of 10 mice. An aqueous Gummi Arabicum suspension of test compound (80 mg of a compound to be tested and 1 g of Gummi Arabicum/100 ml of physiological NaCl solution) is administered orally to each mouse at the dosage of 8 mg of test compound/kg body. One hour after the administration, each mouse is placed in a gas respiration chamber (13×13×24 cm) and oxygen gas containing 4% of Halothane [2-bromo-2-chloro-1,1,1-trifluoroethane] is blown into the chamber at the velocity of 2 l/min for 3 minutes. A mouse anaesthetized is taken out from the chamber and the time between the introduction of anesthesia to waking is measured by righting reflex as the index. To mice of the control group, 1% Gummi Arabicum aqueous physiological solution is orally administered at the dosage of 0.1 ml/10 g body. [Reference: M. J. Turnbull and J. W. Watkins: Br. J. Pharmac., 58, 27-35 (1976)]
Same procedures as mentioned in (II)-(A) are employed, except that the amount of test compound to be orally administered is changed in 4 steps at the dosage of 0.5 mg/kg, 1 mg/kg, 2 mg/kg and 4 mg/kg respectively to measure the relationship between the dosage and degree of strength of anesthesia increasing activity.

[4] = Hexabarbital sleep increasing activity (righting reflex); assay type: in vivo, mouse (male, ddy-strain); conditions: oral, Hexabarbital Na 70 mg/kg i.p.
Protocol: Male mice of ddy-strain having 20 to 25 g body weight are starved for 24 hours. One test group consists of 10 mice. An aqueous Gummi Arabicum suspension of test compound (0.05 g of test compound and 1 g of Gummi Arabicum/100 ml of physiological NaCl solution) is administered orally at the dosage mentioned in the Table 4. One hour after the administration 0.7% of Hexabarbitol.Na-salt is intraperitonerally administered at the dosage of 70 mg/kg body weight. The time between the introduction of sleep to waking is measured by righting reflex as the index. [Reference: A. M. Hjort, De E. J. Beer and D. W. Fassett; J. Pharmac., Exptl.

[5] = Activity for inhibiting fighting behavior of mouse isolated singly for a long period of time; assay type: in vivo, mouse (male, ddy-strain); conditions: positive if fighting no longer than 5 seconds in a minute, range in parentheses, read-out: ED50 (inhibition of fighting behavior)
Protocol: Individual male mice of ddy-strain having 15 to 20 g of body weight are breeded separately in respective cages for 1 month. One test group consists of 10 pairs of mice. The pairs of mice are selected so that when one mouse is taken into the home cage of another, the two mice fight together continuously for over 30 seconds. ED50 values are calculated by administering the respective test compounds to each test groups of mice. Activity for inhibiting fighting behavior of the test compound is determined as positive in case the administered mice only continue the fighting for no longer than 5 seconds in a minute. When the mice continue the fighting over 5 seconds they are forced to separate for the purpose of reducing the number of injured mice. [Reference: C. Y. Yen, R. L. Stanger and N. Millman: Arch. Int. Pharmacodyn., 123, 179 (1959)]

[6] = Analgetic activity (acetic acid writhing); assay type: in vivo, mouse (male, ddy-strain); conditions: Mus musculus, 50 min; oral, 50 minutes before acetic acid i.p.; range in parentheses; read-out: ED50 (analgetic activity)
Protocol: Male mice of ddy-strain having 15-23 g of body weight are used. One test group consists of 10 mice. The compound to be tested is administered orally by procedures similar to the method mentioned in (II). Fifty minutes after the administration, 0.1 ml of 0.6% acetic acid aqueous solution/10 g body weight is injected intraperitoneally. In case of the mice administered orally with the reference compound (Haloperidol), the injection is made 110 minutes after the administration. The number of writhings shown after 10 minutes is counted for 10 minutes and the ED50 value of respective compounds is calculated in comparison with the number of writhings shown by control group. [Reference: R. Koster, M. Anderson and E. I. Debeer: Fed. Proc., 18, 412, (1959)]

[7] = in vivo; conditions: mouse
Protocol: Mice of ddy-strain having 20-22 g of body weight are used. One test group consists of 10 mice.
Oral administration: Compound to be tested is suspended in 1% Gummi Arabicum physiological NaCl aqueous solution.
Intravenuous administration: Compound to be tested is dissolved in 50% propyleneglycol aqueous solution.

T1 sequence (P31389 whole entry): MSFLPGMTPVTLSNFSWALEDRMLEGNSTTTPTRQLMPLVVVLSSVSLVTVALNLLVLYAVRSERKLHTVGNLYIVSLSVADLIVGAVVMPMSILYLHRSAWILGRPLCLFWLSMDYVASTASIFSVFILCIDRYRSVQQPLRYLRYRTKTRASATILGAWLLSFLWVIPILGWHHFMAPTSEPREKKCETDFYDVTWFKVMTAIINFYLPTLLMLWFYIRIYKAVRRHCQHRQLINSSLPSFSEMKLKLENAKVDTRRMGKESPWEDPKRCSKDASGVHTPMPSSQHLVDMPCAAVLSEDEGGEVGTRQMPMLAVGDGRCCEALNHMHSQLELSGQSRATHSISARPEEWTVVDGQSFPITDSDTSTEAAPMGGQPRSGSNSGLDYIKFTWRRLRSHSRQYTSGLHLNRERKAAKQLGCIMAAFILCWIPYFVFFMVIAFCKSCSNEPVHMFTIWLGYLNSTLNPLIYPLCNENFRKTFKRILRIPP

| Structure (SMILES) | pA2 [1] | Kb [2] | Anesthesia increasing activity ([3]; 0.5 mg/kg) | Anesthesia increasing activity ([3]; 1 mg/kg) | Anesthesia increasing activity ([3]; 2 mg/kg) | Anesthesia increasing activity ([3]; 4 mg/kg) | Time (minutes) between introduction of anesthesia and waking ([3]; 8 mg/kg, 1 hour before 4% Halothane) | Sleep time (min.) [Mean ± SD] ([4]; 0.5 mg/kg) | Sleep time (min.) [Mean ± SD] ([4]; 1.0 mg/kg) | Sleep time (min.) [Mean ± SD] ([4]; 2.0 mg/kg) | Sleep time (min.) [Mean ± SD] ([4]; 4 mg/kg) | Sleep time (min.) [Mean ± SD] ([4]; 8 mg/kg) | ED50 [5] | ED50 [6] | LD50 ([7]; iv, female mice) | LD50 ([7]; iv, male mice) | LD50 ([7]; po, female mice) | LD50 ([7]; po, male mice) |
| --- | --- | --- | --- | --- | --- | --- | --- | --- | --- | --- | --- | --- | --- | --- | --- | --- | --- | --- |
| CC(C)(C)NCC(O)COc1cccc2c1CCC(=O)N2 (stereo not drawn) [5-(3-tert-butylamino-2-hydroxy)propoxy-3,4-dihydrocarbostyril hydrochloride] | 5.02 |  |  |  |  |  |  |  |  |  |  |  |  |  |  |  |  |  |
| O=C1CCc2ccc(OCCCN3CCN(c4ccccc4)CC3)cc2N1 [Compound 6, 7-[3-(4-Phenylpiperazinyl)propoxy]-3,4-dihydrocarbostyril dihydrochloride] |  | 0.457 nM | 8.2 ± 2.6 min | 10.3 ± 3.3 min | 12.1 ± 4.2 min | 16.6 ± 5.1 min | 16.8 ± 6.2 min | 43.76 ± 6.09 min | 51.24 ± 11.75 min | 54.11 ± 7.80 min | 65.13 ± 11.59 min | 85.83 ± 12.24 min | 0.7 mg/kg | 2.31 mg/kg | 250 mg/kg | 240 mg/kg | 890 mg/kg | 920 mg/kg |
